Laboratory results published in patent publication US8785425B2, “11β-hydroxyandrosta-4-ene-3-ones” (Sun Pharma Advanced Research Company Ltd., priority 2006, dated 2014).
Marks after values point to notes of the source that are not given here.

Assays:
[1] = test system: croton oil induced ear edema; test: Croton oil ear edema; type: in vivo, Mice (male, CD-1); details: inhibition at 1.6 μg, applied to ear, mice
Procedure: Mice (male, CD-1) were made into different groups. Test compounds were dissolved in pyridine-water-acetone (4:2:14) solution […] of compound or vehicle solution was applied to the left ear of the mice. The right ear of each mouse was applied simultaneously with 10 μl of pyridine:water:acetone (4:2:14) solution. After 2 hrs of compound or vehicle application, 10 μl of croton oil solution was applied to the left ear of all animals. After 6 hr of croton oil treatment the animals were sacrificed; ears were excised and weighed separately.

[2] = test system: liver glycogen deposition; type: in vivo, Male Sprague Dawley rats; details: 3 mg/kg intratracheally, 2 doses 24 hrs apart, adrenalectomized rats
Procedure: Male Sprague Dawley rats, weighing 190-220 g were bilaterally adrenalectomized and maintained on 0.9% saline solution throughout the experiment. On day 5th and 6th of adrenalectomy, animals were made into different groups, test compounds prepared in cold saline (sonicated for 30 min) were instilled intratracheally 2 doses@3 mg/kg, 24 hrs apart. At 15 hrs after the last treatment, animals were sacrificed and livers were excised and weighed. The glycogen content of the livers was determined by anthrone method. Briefly, a weighed quantity of liver tissue was homogenized with 5% trichloroacetic acid, supernatant mixed with ethanol and kept overnight for precipitation. The glycogen thus extracted was estimated as glucose generated after acid hydrolysis by addition of anthrone reagent at 620 nm. Glycogen content was expressed as mg/100 g liver.

[3] = test system: cotton pellet granuloma (blank cotton pellet); test: Assessment of systemic activity by i.v. route (blank cotton pellet granuloma); type: in vivo; details: dose 1600 mcg (for 3 days), male SD rats
Procedure: For assessing systemic side effect on i.v. administration, cotton pellet granuloma assay (blank cotton pellet) in male SD rats was undertaken. Sterilized cotton pellets weighing 20 mg were surgically implanted into the scapular region on both sides. Starting from next day of implantation, compounds dissolved in Pharmasove (Pharmasolve 66.67% in saline) or vehicle were administered intravenously at 1.6 mg/kg dose for 3 successive days. On fifth day of implantation, pellets along with granuloma were taken out. The thymus gland was also separated from each animal and weighed. The pellets with granuloma were dried for 20 hrs at 60° C. and weighed. Mean weights of dry granuloma and thymus and body weight gain/100 g body weights were compared with vehicle control groups.

[4] = test system: cotton pellet induced granuloma; test: Cotton pellet granuloma (compound impregnated in pellet); type: in vivo; details: dose 1000 mcg per pellet, SD rats
Procedure: SD rats were used for assessing anti-inflammatory activity of test compound using cotton pellet granuloma method. Sterilized cotton pellets weighing 20 mg were prepared. Test compounds were dissolved in acetone so as to get the required quantity for each cotton pellet in 500 μl. Different pellets were impregnated with 500 μl of acetone to contain required quantity of test compounds and allowed to dry. Vehicle control pellets were impregnated with 500 μl acetone. Rats were made into different groups. Two cotton pellets were surgically implanted into the scapular region of each rat. On sixth day of such implantation, pellets along with granuloma were taken out. Thymus gland was also separated from each animal and weighed. The pellets with granuloma were dried for 20 hrs at 60° C. and weighed. Mean weights of dry granuloma and thymus, body weight gain/100 g body weights were calculated.

[5] = test system: Sephadex induced lung edema; test: in vivo; details: for Mean % inhibition Lung edema: SD rat
Procedure: Sephadex G-200 was prepared in sterile saline (10 mg/ml) and allowed to swell for at least 3 days at room temperature. Test compounds were prepared as suspensions by grinding and sonicating the solid in chilled saline. All the compounds were administered intratracheally at 24 hrs and 2 hrs prior to intratracheal administration of Sephadex (5 mg/kg) under light ether anesthesia. Vehicle control animals were administered vehicle instead of Sephadex. At 24 hr after Sephadex instillation, lung and thymus were excised from individual animals and weighed. Wet weight of lung and thymus was corrected for 100 g of initial body weight. The percentage increase in lung weight caused by Sephadex and its inhibitions by the compounds, were calculated. The percentage inhibitions of thymus compared to vehicle control group were also calculated.

glucocorticoid receptors = biological target: T1, glucocorticoid receptors (Homo sapiens, UniProt P04150); test: Glucocorticoid receptor binding assay ([3H]dexamethasone radioligand); details: HeLa cells transfected with glucocorticoid receptors; for inhibition at 0.1 µM: % inhibition at 100 nM
T1 construct: host or cells: Human HeLa cells
T1 sequence (P04150 1-777): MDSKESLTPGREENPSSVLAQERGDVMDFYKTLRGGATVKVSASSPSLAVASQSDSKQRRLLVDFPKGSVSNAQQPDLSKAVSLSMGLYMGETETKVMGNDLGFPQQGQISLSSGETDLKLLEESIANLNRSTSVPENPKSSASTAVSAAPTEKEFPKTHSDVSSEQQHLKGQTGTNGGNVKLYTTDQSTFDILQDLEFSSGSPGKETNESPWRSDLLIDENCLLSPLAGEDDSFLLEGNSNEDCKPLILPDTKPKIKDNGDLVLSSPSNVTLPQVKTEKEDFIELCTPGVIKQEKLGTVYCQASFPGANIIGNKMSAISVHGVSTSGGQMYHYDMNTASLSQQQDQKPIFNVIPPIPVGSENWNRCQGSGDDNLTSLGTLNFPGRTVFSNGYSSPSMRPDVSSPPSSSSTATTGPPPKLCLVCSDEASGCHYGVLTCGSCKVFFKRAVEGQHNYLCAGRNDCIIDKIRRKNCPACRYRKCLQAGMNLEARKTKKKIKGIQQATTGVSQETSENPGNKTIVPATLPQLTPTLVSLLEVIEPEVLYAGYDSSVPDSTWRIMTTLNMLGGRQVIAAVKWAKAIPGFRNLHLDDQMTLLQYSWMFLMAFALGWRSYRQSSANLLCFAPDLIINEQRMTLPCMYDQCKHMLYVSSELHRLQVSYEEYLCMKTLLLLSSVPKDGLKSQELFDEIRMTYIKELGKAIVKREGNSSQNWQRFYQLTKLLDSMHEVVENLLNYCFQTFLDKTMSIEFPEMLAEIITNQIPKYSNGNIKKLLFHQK
Procedure: The steroid receptor binding assay were performed by MDS Pharma Services at their Taipei (Taiwan) pharmacology laboratory.
The activity of test compounds on glucocorticoid receptor was assessed using radioligand binding assays. […] Free [^3H]dexamethasone was removed from the medium by centrifugation and concentration of receptor bound ligand was determined in the supernatant by liquid scintillation counting.
The % inhibition was evaluated using a single concentration of test compound and the corresponding radiolabeled ligand. Results are presented as the percent inhibition of specific binding. The values are average of duplicate determinations for each concentration.

## CCC(=O)O[C@]1(C(=O)SCF)[C@H](C)C[C@H]2[C@@H]3C[C@H](F)C4=CC(=O)C=C[C@]4(C)[C@@]3(F)[C@@H](O)C[C@@]21C [Fluticasone propionate, (S)-fluoromethyl 6α,9α-difluoro-11β-hydroxy-16α-methyl-17α-propionyloxy-3-oxoandrosta-1,4-diene-17β-carbothioate, reference compound]
[1]
  Mean % Inhibition (croton oil ear edema): 81.09^a %
[2]
  % Inhibition of thymus: 70.17%
  Glycogen content: 1514.65 mg/100 g liver
[3]
  Mean Inhibition of Granuloma (%): 55.62%
  Mean Thymus wt. Decrease (%): 75.71%
[4]
  Mean % Inhibition of Granuloma: 75.03%
  Thymus wt. (% Decrease): 82.36%
[5]; i.t., Sephadex lung edema model in SD rat
  ED50 Lung edema: 0.086 mg/kg
[5]; i.t., thymus involution, Sephadex lung edema model in SD rat
  ED50 Thymus: 0.36 mg/kg

## C[C@@H]1CC2C3C[C@H](F)C4=CC(=O)C=C[C@]4(C)[C@@]3(F)[C@@H](O)C[C@]2(C)[C@@]1(OC(=O)c1ccco1)C(=O)SCC#CCOC(=O)N(C)C (stereo partly drawn) [IB.103, S-[4-(N,N-Dimethylaminocarbonyloxy)-but-2-ynyl]6α,9α-difluoro-17α-[(2-furanyl-carbonyl)oxy]-11β-hydroxy-16α-methyl-3-oxoandrosta-1,4-diene-17β-carbothioate]
Glucocorticoid receptors; % inhibition at 10 nM
  inhibition at 0.01 µM: 78%

## C[C@@H]1CC2C3C[C@H](F)C4=CC(=O)C=C[C@]4(C)[C@@]3(F)[C@@H](O)C[C@]2(C)[C@@]1(OC(=O)c1ccco1)C(=O)SOCc1ccc(F)cc1 (stereo partly drawn) [IC.5, 6α,9α-Difluoro-17α-[(2-furanylcarbonyl)oxy]-11β-hydroxy-16α-methyl-3-oxoandrosta-1,4-diene-17β-carbonylsulfenic acid (4-fluorophenyl)methyl ester]
Glucocorticoid receptors
  inhibition at 0.1 µM: 75%
[3]
  Mean Inhibition of Granuloma (%): −22.20%

## CCC(=O)O[C@]1(C(=O)SOCF)[C@H](C)CC2C3C[C@H](F)C4=CC(=O)C=C[C@]4(C)[C@@]3(F)[C@@H](O)C[C@@]21C (stereo partly drawn) [IC.3, 6α,9α-Difluoro-11β-hydroxy-16α-methyl-3-oxo-17α-propionyloxyandrosta-1,4-diene-17β-carbonylsulfenic acid fluoromethyl ester]
Glucocorticoid receptors
  inhibition at 0.1 µM: 72%
[2]
  Glycogen content: −11.34 mg/100 g liver
[3]
  Mean Inhibition of Granuloma (%): 12.09%

## CCC(=O)O[C@]1(C(=O)SC)[C@H](C)C[C@H]2[C@@H]3C[C@H](F)C4=CC(=O)C=C[C@]4(C)[C@@]3(F)[C@@H](O)C[C@@]21C [IC.13, 6α,9α-Difluoro-11β-hydroxy-16α-methyl-3-oxo-17α-propionyloxyandrosta-1,4-diene-17β-carbonylsulfenic acid methyl ester.]
[1]
  Mean % Inhibition (croton oil ear edema): 41.79^a %

## CCOC(=O)C(=O)OC/C=C/CSC(=O)[C@@]1(OC(=O)CC)[C@H](C)CC2C3C[C@H](F)C4=CC(=O)C=C[C@]4(C)[C@@]3(F)[C@@H](O)C[C@@]21C (stereo partly drawn) [IB.44, S-[4-(2-Ethoxy-1,2-dioxoethyl)oxy-(E)-but-2-enyl]6α,9α-difluoro-11β-hydroxy-16α-methyl-3-oxo-17α-propionyloxyandrosta-1,4-diene-17β-carbothioate]
[1]
  Mean % Inhibition (croton oil ear edema): 75.19^a %

## CC1CC2C3CC(F)C4=CC(=O)C=CC4(C)C3(F)C(O)CC2(C)C1(OC(=O)c1ccco1)C(=O)SOCc1ccc(Cl)cc1 (stereo not drawn) [IC.7, 6α,9α-Difluoro-17α-[(2-furanylcarbonyl)oxy]-11β-hydroxy-16α-methyl-3-oxoandrosta-1,4-diene-17β-carbonylsulfenic acid (4-chlorophenyl)methyl ester.]
Glucocorticoid receptors; % inhibition at 10 nM
  Glucocorticoid receptor binding % inhibition: 41^b %

## CCCCC(=O)OCC#CCSC(=O)[C@@]1(OC(=O)CC)[C@H](C)CC2C3C[C@H](F)C4=CC(=O)C=C[C@]4(C)[C@@]3(F)[C@@H](O)C[C@@]21C (stereo partly drawn) [IB.35, S-[4-n-Butylcarbonyloxy-but-2-ynyl]6α,9α-difluoro-11β-hydroxy-16α-methyl-3-oxo-17α-propionyloxyandrosta-1,4-diene-17β-carbothioate]
[1]
  Mean % Inhibition (croton oil ear edema): 60.18^a %

## CCC(=O)O[C@]1(C(=O)SCC#CCO)[C@H](C)CC2C3C[C@H](F)C4=CC(=O)C=C[C@]4(C)[C@@]3(F)[C@@H](O)C[C@@]21C (stereo partly drawn) [IB.2, S-(4-Hydroxy-but-2-ynyl) 6α,9α-difluoro-11β-hydroxy-16α-methyl-3-oxo-17α-propionyloxyandrosta-1,4-diene-17β-carbothioate]
Glucocorticoid receptors; % inhibition at 3 nM
  inhibition at 0.003 µM: 55%

## C[C@@H]1CC2C3C[C@H](F)C4=CC(=O)C=C[C@]4(C)[C@@]3(F)[C@@H](O)C[C@]2(C)[C@@]1(OC(=O)c1ccco1)C(=O)SC/C=C\CO (stereo partly drawn) [IB.15, S-(4-Hydroxy-(Z)-but-2-enyl) 6α,9α-difluoro-17α-[(2-furanylcarbonyl)oxy]-11β-hydroxy-16α-methyl-3-oxoandrosta-1,4-diene-17β-carbothioate]
Glucocorticoid receptors; % inhibition at 10 nM
  inhibition at 0.01 µM: 83%
[5]; dose 1000 mcg/kg intratracheally
  Mean % inhibition Lung edema: 70.3%
[5]; dose 3000 mcg/kg intratracheally
  Mean % inhibition Lung edema: 71.1%

## C[C@@H]1C[C@H]2[C@@H]3CCC4=CC(=O)C=C[C@]4(C)[C@@]3(F)[C@@H](O)C[C@]2(C)[C@@]1(O)C(=O)CO [Dexamethasone, 16α-methyl-9α-fluoro-1,4-pregnadiene-11β,17α,21-triol-3,20-dione, reference compound]
[1]
  Mean % Inhibition (croton oil ear edema): 50.05^a %
[4]
  Mean % Inhibition of Granuloma: 44.73%
  Thymus wt. (% Decrease): 68.66%

## C[C@@H]1C[C@H]2[C@@H]3CCC4=CC(=O)C=C[C@]4(C)[C@@]3(Cl)[C@@H](O)C[C@]2(C)[C@@]1(OC(=O)c1ccco1)C(=O)CCl [Mometasone furoate, (11β,16α)-9,21-Dichloro-17-[(2-furanylcarbonyl)oxy]-11-hydroxy-16-methylpregna-1,4-diene-3,20-dione]
[2]
  % Inhibition of thymus: 43.51%
  Glycogen content: 1117.32 mg/100 g liver

## COSC(=O)C1(OC(=O)c2ccco2)C(C)CC2C3CC(F)C4=CC(=O)C=CC4(C)C3(F)C(O)CC21C (stereo not drawn) [IC.14, 6α,9α-Difluoro-17α-[(2-furanylcarbonyl)oxy]-11β-hydroxy-16α-methyl-3-oxoandrosta-1,4-diene-17β-carbonylsulfenic acid methyl ester]
[1]
  Mean % Inhibition (croton oil ear edema): 61.46^a %
